Measurements from PubChem BioAssay AID832 (PCMD, 2007).
Inconclusive results are not listed. The source made the active and inactive calls. No rule for the calls is given here.

Molecular target: Cathepsin G (Homo sapiens) (UniProt P08311)
Assay: IC50 of CTSG protease blockers – biochemical, confirmation, dose response (AID 832)
Settings: purified cathepsin G enzyme activity, signal read-out

Sequence of Cathepsin G (Homo sapiens) (P08311 21-244 limits assumed): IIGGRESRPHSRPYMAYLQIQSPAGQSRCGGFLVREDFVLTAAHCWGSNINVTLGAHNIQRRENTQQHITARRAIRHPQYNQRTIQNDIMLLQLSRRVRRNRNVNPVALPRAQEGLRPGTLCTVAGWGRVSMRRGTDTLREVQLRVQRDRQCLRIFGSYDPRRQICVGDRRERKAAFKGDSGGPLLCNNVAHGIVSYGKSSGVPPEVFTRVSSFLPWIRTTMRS

IC50	Structure (SMILES)
> 50 µM (inactive)	O=C1CCCC(O)=C1C=NCCc1ccccc1
> 50 µM (inactive)	COc1ccc(C2C(C(=O)c3cccs3)=C(O)C(=O)N2c2nncs2)cc1 (stereo not drawn)
> 50 µM (inactive)	COC(=O)c1sc(N2C(=O)C(O)=C(C(=O)c3ccc(C)o3)C2c2ccc(F)cc2)nc1C (stereo not drawn)
